# From patent US8215314B2, “Photochemical tissue bonding” (The General Hospital Corporation, priority 2000, dated 2012)
# Legend:
# [1] = test system: rabbit (New Zealand White) corneas; assay: In vivo PTB of 3.5-mm corneal incisions, incisional bursting pressure; settings: 1.5 mM RB
# Protocol: PTB was performed in vivo in New Zealand rabbits to repair two types of corneal wounds.
# In group I 3.5-mm incisions were performed in 20 rabbit (New Zealand White) corneas. Dose and laser irradiance were varied in subgroups of five or more eyes for each condition and appropriate control eyes. Photoactivation was performed with a 514 nm Argon Laser. Wound leak and incisional bursting pressure of the treated and untreated rabbit eyes was determined in vivo, with the animals under anesthetic.
# Group I wounds were healed using, e.g., 191 J/cm2, applying 1.5 mM RB. The immediate in vivo bursting pressure was 495±10 mm Hg for PTB treated eyes. Under the same conditions the values of the busting pressure in the control eye varied from 15 to 60 mm Hg. One day after surgery, the bursting pressure was the same for PTB treated eyes and control eyes (approximately 450±125 mmHg). At 14 days, the bursting pressure exceeded 500 mm Hg in both PTB-treated and control eyes.
# [2] = test system: collagen gel implant on rat latissimus dorsi muscle flap; assay: Adherence of collagen-based esophagus implant to host muscle flap after PTB, ex vivo; settings: for adherence of collagen implant on muscle flap: 0.1% RB, 514 nm
# Protocol: An ex vivo experimental system was developed to investigate the effect of PTB on the bonding of an engineered, collagen-based, esophagus implant to host muscle flap tissue without the need for silicon tubing.
# FIG. 14 provides an overview of the experimental methods. Esophageal keratinocytes were seeded on uncontracted collagen gel (ICN Biomedicals) for about one week until confluence was reached. A 1×1 cm piece of seeded collagen gel was removed (implant) from the culture dish and a suture loop was laced through at its edge. An equivalently-sized section of rat latissimus dorsi muscle flap was secured onto a flat plastic surface with sutures. Rose bengal (RB) at 0.1% (w/v), a photosensitizer having an absorption maximum and absorption coefficient of 550 nm and 33,000 dm^3/mo/cm at 514 nm, respectively, was applied to the collagen side of the implant and the surface of the muscle flap and incubated for about two minutes. The esophagus implant and the muscle flap were approximated with the dye-treated surfaces facing each other by gently pressing over the esophagus implants without damaging the keratinocyte layer. Excess dye was removed by aspiration and blotting. […]
# Following irradiation, the adherence of the collagen-based esophageal implant to the host muscle flap was tested for the 50 J/cm^2 sample, 100 J/cm^2 sample, and the three controls, using a tensiometer (Chartillon) coupled to a force transducer (DFA2, Ametek). The adherence (N/cm^2; N=force applied, cm^2=area of collagen implant) of the collagen implant on the muscle flap was determined from the force-deflection curve, generated by plotting the amount of peeling force applied to the collagen implant to the force plate displacement level of the force transducer. It was observe that the mean adherence measurements determined for the negative, RB, and laser controls were 0.05, 0.06, and 0.07 N/cm^2, respectively (FIG. 15). In contrast, the adherence measurements determined for the 50 and 100 J/cm^2 composite samples were 0.15 and 0.13 N/cm^2, respectively (FIG. 15).
# esophageal keratinocytes = assay: NADH-diaphorase viability of esophageal keratinocytes after PTB; assay type: cell-based
# Protocol: The viability of the photoactivated cells was also assessed. Nicotinamide adenine dinucleotide (NADH-diaphorase) staining was carried out based on the methods described by Heisterkamp J et al. (1999) Lasers Sug Med 25(3): 257-62 and Neumann R A et al. (1991) J Am Acad Dermatol 25: 991-8. Following irradiation, the keratinocyte layer was gently peeled away from the collagen gel and was exposed overnight to an incubation solution consisting of nicotinamide adenine dinucleotide (NADH) and nitroblue tetrazolium chloride (NBT) (Sigma). The viability of the cells was indicated by the formation of a water-insoluble blue precipitate (diformazan), which corresponded to areas with NADH-diaphorase activity. The insoluble blue precipitate was dissolved in DMSO (an organic solvent) and quantified by measuring the optical density (OD) at 550 nm against a commercially available standard. The negative control, RB control, and the laser control composites were also tested using identical conditions. It was determined for the negative control, RB control, laser control, 50 J/cm^2 composite sample, and the 100 J/cm^2 composite sample that the levels of corresponding blue precipitate were 143, 151, 158, 173 and 158 diformazan/nM after photochemical tissue bonding treatment (FIG. 16).
smiles,measurement,setting,value
O=C([O-])c1c(Cl)c(Cl)c(Cl)c(Cl)c1-c1c2cc(I)c(=O)c(I)c-2oc2c(I)c([O-])c(I)cc12.[Na+].[Na+] [Rose Bengal],immediate in vivo bursting pressure,"[1]; 191 J/cm2, 514 nm, 3.5-mm incision",495±10 mm Hg
same,bursting pressure at 14 days,"[1]; 191 J/cm2, also in control eyes",exceeded 500 mm Hg
same,bursting pressure one day after surgery,"[1]; 191 J/cm2, same as control eyes",approximately 450±125 mmHg
same,adherence of collagen implant on muscle flap,"[2]; 0.25 W/cm^2, 50 J/cm^2",0.15 N/cm^2
same,adherence of collagen implant on muscle flap,"[2]; 0.25 W/cm^2, 100 J/cm^2",0.13 N/cm^2
same,mean adherence of collagen implant on muscle flap,"[2]; RB control: 0.1% RB treated, nonirradiated",0.06 N/cm^2
same,level of blue precipitate (NADH-diaphorase viability),"esophageal keratinocytes; 0.1% RB, 50 J/cm^2",173 diformazan/nM
same,level of blue precipitate (NADH-diaphorase viability),"esophageal keratinocytes; 0.1% RB, 100 J/cm^2",158 diformazan/nM
same,level of blue precipitate (NADH-diaphorase viability),"esophageal keratinocytes; RB control: RB treated, nonirradiated",151 diformazan/nM
